# Results from paper PMC10445290, “Enantiomeric Fractions Reveal Differences in the Atropselective Disposition of 2,2′,3,5′,6-Pentachlorobiphenyl (PCB 95) in Wildtype, Cyp2abfgs-Null, and CYP2A6-Humanized Mice” (Chemical Research in Toxicology, 2023).
# Where two headings read alike, the source gives them in different places.
# Experiments:
# [1] = parameters: method as in PMID 26463278; conditions: male Wistar rats, sub-acute oral exposure; cited from earlier work
# [2] = Atropisomeric analysis of PCB 95 (enantiomeric fraction, EF) in tissues by chiral GC-ECD; format: in vivo, mice; conditions: racemic PCB 95 1.0 mg/kg oral, 24 h, EF = AE1/(AE1 + AE2)
# Experimental: Adult male and female wild-type (WT) C57BL/6 mice, KO, and KI mice (4 months old) were exposed to racemic PCB 95. Mice were randomly assigned to exposure groups and received a single oral dose of PCB 95 (1.0 mg/kg) in stripped corn oil (10 mL/kg; lot# A0395699; cat# 801-03-7; Fisher Scientific) via gavage (5–7 mice per group). Control animals received corn oil alone (1–3 mice per group) to assess the potential background contamination with PCB 95. Animals were euthanized 24 h after PCB 95 exposure. Blood was collected from the heart and placed in pre-weighed glass vials with 80 μL of ethylenediaminetetraacetic acid solution (EDTA, 7.5%, w/w). The amount of blood in each vial was determined by weight prior to sample extraction. Adipose, brain, and liver tissues were excised from each animal and individually wrapped in aluminum foil. Samples were stored at −80 °C in separate plastic bags and shipped on dry ice to the University of Iowa for analysis.
# Atropisomeric analyses of PCB 95 were performed with all samples using an Agilent 7890A gas chromatograph with a ^63Ni-μECD detector and a Chiralsil-Dex CB (25 m length, 250 μm inner diameter, 0.25 μm film thickness; Agilent, Santa Clara, CA, USA) following a published method with modifications.[48] The following temperature program was used for the atropisomeric analysis: 50 °C, hold for 1 min, 10 °C/min to 150 °C, hold for 65 min, 15 °C/min to 200 °C, and hold for 15 min. The injector and detector temperature was 250 °C, and the helium flow was 3.0 mL/min. The EF values of PCB 95 were calculated as EF = AE1/(AE1 + AE2) where AE1 and AE2 are the peak area of the first (E1) and the second eluting (E2) atropisomers, respectively. E1- and E2-PCB 95 correspond to aR- and aS-PCB 95, respectively.[16],[25]
# Method blanks, blank tissue samples, and an ongoing precision and recovery standard were extracted in parallel with each sample batch. The method detection limits (MDLs) were determined based on method blanks (Table S3). Limits of quantification (LOQ) in different matrices were established based on the corresponding tissue blanks (Table S3). Surrogate standards, PCB 117 and 4′-159, were added to all samples to assess the precision and reproducibility of the analytical methods (Table S4). In addition, an ongoing precision and surrogate standard was in parallel extracted from both method and tissue blanks with each sample batch (Table S5). The resolution of atropisomers of PCB 95 on the Chiralsil Dex CB column was 1.27, calculated with the formula Rs = [tE2 – tE1)/(0.5 × (WE1 + WE2)], where tE1 and tE2 are the retention times of peaks 1 and 2, and WE1 and WE2 indicate the width of the peak E1 and E2. The EF value of the racemic standard of PCB 95 was 0.498 ± 0.004 (n = 7).
# Levels of PCB 95 and its metabolites, expressed as ng per gram wet weight (ng/g), and EF values are reported as mean ± standard deviation (Tables S6 and S7). The statistical analyses were performed with two-way ANOVA with the Bonferroni model in GraphPad Prism 9.4.1 (Tables S8 and S9). In addition, OH-PCB metabolite profiles were compared using the similarity coefficient, cos θ (Tables S10 and S11).[49] The cos θ ranges from 0 to 1, where a value of 0 indicates completely different profiles and a value of 1 indicates identical profiles. The original data underlying this study are openly available through the Iowa Research Online repository at https://doi.org/10.25820/data.006613.
# [3] = cited from earlier work
# [4] = cited from earlier work; remark: listed apart in the source
# [5] = FKI, female CYP2A6-humanized mice
# [6] = FKO, female Cyp2abfgs-null mice
# [7] = MKI, male CYP2A6-humanized mice
# [8] = collected in 2001 from Japanese women
smiles,measurement,setting,value
"Clc1ccc(Cl)c(-c2c(Cl)ccc(Cl)c2Cl)c1 [PCB 95, 2,2′,3,5′,6-pentachlorobiphenyl]",PCB 95 levels in adipose tissue,[1],9300 ng/g
same,PCB 95 levels in blood,[1],9 ng/g
same,PCB 95 levels in the cerebellum,[1],51 ng/g
same,PCB 95 levels in the cortex,[1],29 ng/g
same,PCB 95 levels in the liver,[1],120 ng/g
same,Enantiomeric fraction (EF) in adipose,[2]; [5],0.35 ± 0.02
same,Enantiomeric fraction (EF) in blood,[2]; [5],0.28 ± 0.07
same,Enantiomeric fraction (EF) in brain,[2]; [5],0.29 ± 0.01
same,Enantiomeric fraction (EF) in liver,[2]; [5],0.24 ± 0.03
same,Enantiomeric fraction (EF) in adipose,[2]; [6],0.41 ± 0.05
same,Enantiomeric fraction (EF) in blood,[2]; [6],0.37 ± 0.07
same,Enantiomeric fraction (EF) in brain,[2]; [6],0.39 ± 0.05
same,Enantiomeric fraction (EF) in liver,[2]; [6],0.32 ± 0.06
same,Enantiomeric fraction (EF) in adipose,"[2]; FWT, female wildtype mice",0.33 ± 0.02
same,Enantiomeric fraction (EF) in blood,"[2]; FWT, female wildtype mice",0.32 ± 0.07
same,Enantiomeric fraction (EF) in brain,"[2]; FWT, female wildtype mice",0.25 ± 0.03
same,Enantiomeric fraction (EF) in liver,"[2]; FWT, female wildtype mice",0.20 ± 0.03
same,Enantiomeric fraction (EF) in adipose,[2]; [7],0.36 ± 0.02
same,Enantiomeric fraction (EF) in blood,[2]; [7],0.31 ± 0.03
same,Enantiomeric fraction (EF) in brain,[2]; [7],0.32 ± 0.02
same,Enantiomeric fraction (EF) in liver,[2]; [7],0.27 ± 0.03
same,Enantiomeric fraction (EF) in adipose,"[2]; MKO, male Cyp2abfgs-null mice",0.38 ± 0.03
same,Enantiomeric fraction (EF) in blood,"[2]; MKO, male Cyp2abfgs-null mice",0.35 ± 0.04
same,Enantiomeric fraction (EF) in brain,"[2]; MKO, male Cyp2abfgs-null mice",0.34 ± 0.03
same,Enantiomeric fraction (EF) in liver,"[2]; MKO, male Cyp2abfgs-null mice",0.28 ± 0.04
same,Enantiomeric fraction (EF) in adipose,"[2]; MWT, male wildtype mice",0.37 ± 0.01
same,Enantiomeric fraction (EF) in blood,"[2]; MWT, male wildtype mice",0.28 ± 0.02
same,Enantiomeric fraction (EF) in brain,"[2]; MWT, male wildtype mice",0.31 ± 0.02
same,Enantiomeric fraction (EF) in liver,"[2]; MWT, male wildtype mice",0.26 ± 0.02
same,PCB 95 concentration in maternal serum,"[3]; MARBLES cohort, detected in only one sample",0.1 ng/g wet weight
same,PCB 95 in human adipose tissue,"[3]; collected 2008 to 2009 during abdominal operations, Southeast China",below the limit of detection
same,PCB 95 in breast adipose tissue,[3]; [8],below the detection limit
same,PCB 95 in serum,[3]; [8],below the detection limit
same,Average PCB 95 levels in postmortem brain tissues,"[3]; older donors aged 58 to 80, United States",0.13 ng/g
same,PCB 95 in human liver samples,[3]; small human cohort from Belgium (N = 11),below the limit of detection
same,PCB 95 in postmortem brain tissues,[3]; younger donors aged 0 days to 1 year,not detected
same,Mean PCB 95 blood level,"[4]; corresponding dams, exposure via diet through gestation and lactation",16 ng/g
same,PCB 95 levels in the liver,[4]; corresponding offspring on postnatal day 21,150 ng/g wet weight
same,PCB 95 levels in brain,[4]; dams euthanized on postnatal day 21,47 ng/g
same,PCB 95 levels in adipose tissue,"[4]; dams exposed during gestation and lactation, high dose 6.0 mg/kg bw/d","11,600 ng/g"
same,PCB 95 levels in adipose tissue,"[4]; dams exposed during gestation and lactation, low dose 0.1 mg/kg bw/d",170 ng/g
same,PCB 95 levels in blood,"[4]; dams exposed orally during gestation and lactation, high dose 6.0 mg/kg bw/d",52 ng/g
same,PCB 95 levels in blood,"[4]; dams exposed orally during gestation and lactation, low dose 0.1 mg/kg bw/d",not detected
same,PCB 95 levels in the liver,[4]; dams exposed throughout gestation and lactation,120 ng/g wet weight
same,PCB 95 levels in the liver,"[4]; dams exposed to racemic PCB 95 during gestation and lactation, high dose 6.0 mg/kg bw/d",700 ng/g
same,PCB 95 levels in the liver,"[4]; dams exposed to racemic PCB 95 during gestation and lactation, low dose 0.1 mg/kg bw/d",12 ng/g
same,PCB 95 levels in adipose tissue,"[4]; female mice, sub-chronic oral exposure, 0.1 mg/kg bw/d",1800 ng/g
same,PCB 95 levels in adipose tissue,"[4]; female mice, sub-chronic oral exposure, 6.0 mg/kg bw/d","47,000 ng/g"
same,PCB 95 levels in blood,"[4]; female mice, subchronic oral exposure, 0.1 mg/kg bw/d",90 ng/g
same,PCB 95 levels in blood,"[4]; female mice, subchronic oral exposure, 6.0 mg/kg bw/d",1200 ng/g
same,PCB 95 levels in brain,"[4]; mice exposed orally to different doses throughout pregnancy, below the detection limit",< 140 ng/g
same,PCB 95 levels in brain,"[4]; offspring of pregnant mice exposed developmentally, postnatal day 7",50 ng/g
same,PCB 95 levels in brain,"[4]; offspring of pregnant mice exposed developmentally, postnatal day 21",70 ng/g
same,PCB 95 levels in blood,[4]; postnatal day 21 pups exposed throughout gestation and lactation via the maternal diet,36 ng/g
